glass transition temperature	SMILES
230.00 °C	*Oc1cccc(Oc2ccc(NC(=O)c3cc(NC(=O)c4ccc(OC(C)=O)cc4)cc(C(=O)Nc4ccc(*)cc4)c3)cc2)c1 (repeat unit)
74.00 °C	*CCCCCCCCCCCN1C(=O)c2ccc(Oc3ccc4c(c3)C(=O)N(*)C4=O)cc2C1=O (repeat unit)
14.50 °C	*CC1CC(*)C(OC(=O)CCCCCCCCCCOc2ccc(-c3ccc(C#N)cc3)cc2)C1OC(=O)CCCCCCCCCCOc1ccc(-c2ccc(C#N)cc2)cc1 (repeat unit)
72.50 °C	*Oc1ccc(NC(=O)CCCCCCC(=O)Nc2ccc(OC3COC4C(*)COC34)cc2)cc1 (repeat unit)
130.00 °C	*Oc1ccc(OC(=O)c2ccc(C(*)=O)cc2Sc2ccccc2)cc1-c1ccccc1 (repeat unit)
35.00 °C	*c1ccc(OCCCCCCCCCCCOC(=O)c2ccc(C(=O)OCCCCCCCCCCCOc3cccc(-c4nnc(*)s4)c3)cc2)cc1 (repeat unit)
312.00 °C	*C(=O)Nc1cccc(C(=O)Nc2cccc(NC(=O)c3ccc4[nH]c(-c5ccc(-c6nc7cc(*)ccc7[nH]6)cc5)nc4c3)c2)c1 (repeat unit)
45.00 °C	*CC(*)(C)C(=O)OCc1ccc2c(c1)c1ccccc1n2CCCCCCCC (repeat unit)
199.50 °C	*Nc1ccc(NC(=O)c2ccc(NC(=O)CCCCCCCCCCC(=O)Nc3ccc(C(*)=O)cc3)cc2)cc1C(=O)OCCCCCCCCCCCCCC (repeat unit)
-10.00 °C	*c1cc(-c2sc(-c3cc(CCCCCCCCCCCCCC)c(*)s3)cc2CCCCCCCCCCCCCC)c2cccccc1-2 (repeat unit)
51.50 °C	*Oc1ccc(CC(NC(=O)CCc2ccc(OC(*)=O)cc2)C(=O)OCCCCCC)cc1 (repeat unit)
85.00 °C	*CC(*)(C)C(=O)OCCC[Si]12O[Si]3(CC(C)C)O[Si]4(CC(C)C)O[Si](CC(C)C)(O1)O[Si]1(CC(C)C)O[Si](CC(C)C)(O2)O[Si](CC(C)C)(O3)O[Si](CC(C)C)(O4)O1 (repeat unit)
177.00 °C	*C(=O)Oc1ccc(-c2ccc(OC(=O)c3ccc4c(c3)C(=O)N(c3ccc(-c5ccc(N6C(=O)c7ccc(*)cc7C6=O)cc5C)c(C)c3)C4=O)cc2C)c(C)c1 (repeat unit)
312.00 °C	*C(=O)Nc1cccc(NC(=O)c2ccc3[nH]c(-c4cc(-c5nc6cc(*)ccc6[nH]5)cc(N5C(=O)c6ccccc6C5=O)c4)nc3c2)n1 (repeat unit)
125.00 °C	*Nc1ccc(NC(=O)CCCCCCCCC(*)=O)cc1 (repeat unit)
262.50 °C	*C(=O)c1cccc(C(=O)c2ccc3c(c2)C(=O)N(c2ccc(C(c4ccc(N5C(=O)c6ccc(*)cc6C5=O)cc4)(C(F)(F)F)C(F)(F)F)cc2)C3=O)c1 (repeat unit)
57.00 °C	*CC(*)(C)C(=O)OCCOCCOc1ccc(/N=N/c2ccc(C#N)cc2)cc1 (repeat unit)
186.00 °C	*Oc1ccc(Oc2ccc(C(=O)c3ccc(-c4ccc(C(=O)c5ccc(*)cc5)cc4)cc3)cc2)cc1-c1ccccc1 (repeat unit)
-26.00 °C	*CCCCCCCCCCCCCCCCOC(=O)CCCCCCC(=O)O* (repeat unit)
290.00 °C	*c1ccc(-c2ccc(-c3nc4cc(Oc5ccc(NC(=O)c6ccc7c(c6)C(=O)N(c6ccc(C(c8ccc(N9C(=O)c%10ccc(C(=O)Nc%11ccc(Oc%12ccc%13nc(-c%14ccccc%14)c(*)nc%13c%12)cc%11)cc%10C9=O)cc8)(C(F)(F)F)C(F)(F)F)cc6)C7=O)cc5)ccc4nc3-c3ccccc3)cc2)cc1 (repeat unit)

SMILES	glass transition temperature
*CC(COCC)O* (repeat unit)	-61.00 °C
*c1ccc(Oc2ccc(N3C(=O)c4ccc(P(=O)(c5ccccc5)c5ccc6c(c5)C(=O)N(*)C6=O)cc4C3=O)cc2)cc1 (repeat unit)	318.00 °C

— the PolyMetriX glass transition set
